Assay results taken from the NIST ThermoML archive (doi:10.1007/s10765-006-0119-1).

Conditions: 101.33 kPa, Liquid, Oscillating Cup

O=[N+]([O-])[O-].[Na+] [sodium nitrate]
Conditions	viscosity [mPa·s]
590.3 K	2.854
599.3 K	2.74
600 K	2.658
600.3 K	2.638
613.2 K	2.437
640.9 K	2.155
653.6 K	2.05
673.2 K	1.811
676.8 K	1.768
691.9 K	1.719
709.7 K	1.627
714.6 K	1.537
732.4 K	1.564
752.1 K	1.43
